Source: PMC9562282, “Reaction of Thiosulfate Dehydrogenase with a Substrate Mimic Induces Dissociation of the Cysteine Heme Ligand Giving Insights into the Mechanism of Oxidative Catalysis” (Journal of the American Chemical Society, 2022)

Molecular target: T1, CjTsdA (Campylobacter jejuni thiosulfate dehydrogenase) (Campylobacter jejuni, UniProt A0A5Y8VWW6)
T1 construct: diheme c-type cytochrome (two covalent c hemes), mass 37,202 Da by LCMS with unmodified Cys138; host and tags only in supplement
Experiment: LCMS of intact protein (supported by absorbance and MCD spectroscopy)
Format: binding
Conditions: covalent; cysteinyl-138 sulfonate adduct; 1.5 mM sulfite, anaerobic 50 mM HEPES, 50 mM NaCl, pH 7, 20 °C; ferricyanide as oxidant

With `O=S(O)O` [sulfite] the “LCMS of intact protein (supported by absorbance and MCD spectroscopy)” value was “sulfite is shown to bind to the active site of CjTsdA”.
